Experiment [1] concerns the target T1, GPR17 (Homo sapiens, UniProt Q13304). The following applies: WO 2005/103291; cited from earlier work.
Target sequence in this assay (Q13304 whole entry, species assumed): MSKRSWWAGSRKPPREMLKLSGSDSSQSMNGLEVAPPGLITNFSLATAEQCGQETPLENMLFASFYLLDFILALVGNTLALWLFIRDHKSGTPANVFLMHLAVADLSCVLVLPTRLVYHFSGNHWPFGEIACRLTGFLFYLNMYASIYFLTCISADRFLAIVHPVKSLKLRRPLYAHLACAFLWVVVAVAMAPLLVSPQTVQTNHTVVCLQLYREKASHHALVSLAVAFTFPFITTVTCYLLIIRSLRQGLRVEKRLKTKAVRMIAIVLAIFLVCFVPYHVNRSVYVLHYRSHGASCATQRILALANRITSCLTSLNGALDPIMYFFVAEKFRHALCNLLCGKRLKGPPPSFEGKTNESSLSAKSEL
For experiment [2], the target named is T1, GPR17. The experiment is described as follows: Calcium mobilization functional assay (Ca2+ assay) in CHO hGPR17 cells. Type of experiment: cell-based. Set-up: host or cells: Flp-In T-REx CHO cells, expression induced with doxycycline. The following applies: inhibition of 50 nM MDL29,951 (GPR17 agonist), activity range, read-out: Ca^2+ assay pIC50 (converted). As to the method: (§1) Flp-In T-REx CHO cells stably expressing human GPR17 receptor (CHO hGPR17) from Evi Kostenis' lab (Bonn University, Germany) were cultured at 37° C. in a humidified atmosphere of 5% CO2. Cells were grown in DMEM with Nutrient Mixture F-12 supplemented with hygromycin B (500 μg/ml) and blasticidin (30 μg/ml). Expression from the Flp-In locus was induced by treatment with doxycycline (1 μg/ml) for 16-20 h prior assays.
GPR17 is a G-protein coupled receptor. GPR17 activation triggers Gq-type G-protein signaling resulting in endoplasmic reticulum calcium (Ca^2+) stores release in cytosol which can be measured using Calcium 5 dye, a fluorescent indicator dye of cytosolic Ca^2+ levels. The compounds of the present invention were assessed either in the Ca^2+ assay or in the GPR17 cAMP assay, described further below.
CHO hGPR17 were defrosted and seeded at a density of 20,000 cells per well into black 384-well plates with clear bottom. Cells were incubated overnight at 37° C. in a humidified atmosphere of 5% CO2. Sixteen to twenty hours after seeding, CHO hGPR17 were loaded for 60 min with Calcium 5 dye, a cytosolic Ca^2+ indicator fluorescent dye, according to manufacturer's instructions. Fluorescent signal relative to cytosolic Ca^2+ concentration was recorded over time at room temperature in FLIPR Tetra reader. Cells were first incubated for 30 minutes at room temperature in HBSS Hepes buffer pH 7.4 containing increasing concentrations of test compounds (typically 10^−11 M to 10^−6M). Then, 50 nM MDL29,951, a GPR17 agonist, was added to the cells. Inhibitory effects of varying concentrations test compounds were measured and resulting pIC50S were determined. All incubations were performed in duplicate and results were compared to a concentration response curve of GPR17 agonist and antagonist reference compounds. Analysis and curve fitting were performed in ActivityBase XE using XLfit 4-parameter logistic equation y=A+((B−A)/(1+((C/x)^D))) where A, B, C and D stand for minimum y, maximum y, IC50 and slope, respectively.
The activities of the Example compounds tested are depicted in the table 6 in Section B-IIB below. The activity ranges A, B and C refer to pIC50 values in the Ca^2+ assay as follows: “A”: pIC50 6.5≤x<7.5, “B”: pIC50 7.5≤x<8.5, “C”: 8.5≤pIC50
Target sequence in this assay (Q13304 29-367 limits assumed): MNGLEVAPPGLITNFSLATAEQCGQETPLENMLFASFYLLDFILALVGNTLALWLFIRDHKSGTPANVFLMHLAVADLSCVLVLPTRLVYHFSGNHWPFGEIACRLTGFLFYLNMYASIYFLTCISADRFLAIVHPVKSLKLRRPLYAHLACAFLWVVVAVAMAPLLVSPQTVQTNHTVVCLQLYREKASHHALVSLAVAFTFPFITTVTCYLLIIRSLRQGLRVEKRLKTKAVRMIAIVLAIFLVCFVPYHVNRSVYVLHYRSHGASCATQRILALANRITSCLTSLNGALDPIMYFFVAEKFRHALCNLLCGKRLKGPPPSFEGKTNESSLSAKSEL

Experiment [3] addresses T1, GPR17. Description: cAMP accumulation functional assay (HTRF) in CHO hGPR17 cells. Type of experiment: cell-based. More on the design: host or cells: Flp-In T-REx CHO cells, expression induced with doxycycline. The note with it: Schild analysis against MDL29,951, 5 μM forskolin, activity range, read-out: cAMP assay pA2 (converted). As to the method: as §1
Target sequence in this assay (Q13304 29-367 limits assumed): as above
GPR17 activation can also recruit Gi-type G-protein signaling, resulting in a decrease of intracellular cyclic adenosine monophosphate (cAMP). Intracellular cAMP changes can be measured using the HTRF cAMP dynamic assay kit from CisBio (Codolet, France). Using homogenous time-resolved fluorescence technology (HTRF), the assay is based on competition between native cAMP produced by cells and cAMP labelled with the dye d2. The tracer binding was determined by an anti-cAMP antibody labeled with cryptate.
CHO hGPR17 were detached with PBS containing EDTA and dispatched in black 384-well plates with 5,000 cells per well. Cells were first incubated for 30 minutes at room temperature in HBSS Hepes (pH 7.4) containing vehicle or varying concentrations of test GPR17 antagonist/inverse agonist compounds. Then, a dose response curve of MDL29,951 GPR17 agonist (typically from 10^−5M to 10^−10M) was added on vehicle and on each test GPR17 antagonist/inverse agonist compound concentration in a final volume of 20 μL HBSS Hepes buffer (pH 7.4) containing 1% DMSO, 5 μM forskolin and 0.1 mM IBMX. After 60 minutes incubation at room temperature, the reaction is terminated and the cells lysed by adding the d2 detection reagent and the cryptate reagent in 10 μL lysis buffer each according to manufacturer's instructions. After 60 minutes incubation, changes in cAMP concentrations are measured according to manufacturer's instructions using an Envision plate reader with laser excitation. All incubations were performed in duplicate. Data was analyzed using GraphPad Prism software using the 4-parameter logistic equation to measure MDL29,951 pEC50s in absence and presence of GPR17 antagonist/inverse agonist test compounds. Dose ratio (DR) were plotted against antagonist concentrations and Schild analysis provided estimated affinity pA2 of GPR17 antagonist/inverse agonist test compounds.
The activities of the Example compounds tested are depicted in the table below. The activity ranges A, B and C refer to pA2 values in the cAMP assay as follows: “A”: pA2 6.5≤x<7.5, “B”: pA2 7.5≤x<8.5, “C”: 8.5≤pA2.

Turning to `NCC(=O)CCC(=O)O` [Example 5-ALA, 5 amino levulinic acid], on GPR17 [1], the “amounts needed in the assays (GPR17 activating ligand)” value was “three digit micromolar range”. With `O=S(=O)(Nc1cc(F)c(Cl)nc1F)c1c[nH]c2cc(Cl)ccc12` [Example I-2, 6-chloro-N-(6-chloro-2,5-difluoropyridin-3-yl)-1H-indole-3-sulfonamide], the IC50 on GPR17 [2] was at most 0.00316 µM. Moreover, the Kb at GPR17 [3] is 0.00316 to 0.0316 µM. With `COc1nc(Cl)c(F)cc1NS(=O)(=O)c1c[nH]c2cc(Cl)ccc12` [Example I-3, 6-chloro-N-(6-chloro-5-fluoro-2-methoxypyridin-3-yl)-1H-indole-3-sulfonamide], at GPR17 [2], the IC50 was 0.00316 to 0.0316 µM. Further, the Kb at GPR17 [3] was at most 0.00316 µM. As to `COc1nc(F)c(NS(=O)(=O)c2c[nH]c3cc(Cl)ccc23)cc1F` [Example I-5, 6-chloro-N-(2,5-difluoro-6-methoxypyridin-3-yl)-1H-indole-3-sulfonamide], the IC50 on GPR17 [2] is 0.00316 to 0.0316 µM. Moreover, the Kb on GPR17 [3] was 0.00316 to 0.0316 µM. On to `COc1nc(OC)c(NS(=O)(=O)c2c[nH]c3cc(Cl)ccc23)cc1F` [Example I-6, 6-chloro-N-(5-fluoro-2,6-dimethoxypyridin-3-yl)-1H-indole-3-sulfonamide], for which the IC50 at GPR17 [2] was at most 0.00316 µM. For the same compound, the Kb at GPR17 [3] is at most 0.00316 µM. Turning to `Cc1nc(F)c(NS(=O)(=O)c2c[nH]c3cc(Cl)ccc23)cc1F` [Example I-7, 6-chloro-N-(2,5-difluoro-6-methylpyridin-3-yl)-1H-indole-3-sulfonamide], at GPR17 [2], the IC50 is 0.00316 to 0.0316 µM. For the same compound, the Kb on GPR17 [3] was 0.00316 to 0.0316 µM. Turning to `COc1nc(Br)cnc1NS(=O)(=O)c1c[nH]c2cc(Cl)ccc12` [Example I-10, N-(5-bromo-3-methoxypyrazin-2-yl)-6-chloro-1H-indole-3-sulfonamide], on GPR17 [2], the IC50 was at most 0.00316 µM. For the same compound, at GPR17 [3], the Kb is at most 0.00316 µM. `COc1ccc(NS(=O)(=O)c2c[nH]c3cc(Cl)ccc23)cn1` [Example I-15, 6-chloro-N-(6-methoxypyridin-3-yl)-1H-indole-3-sulfonamide]: the IC50 on GPR17 [2] was 0.0316 to 0.316 µM. For the same compound, the Kb at GPR17 [3] is 0.0316 to 0.316 µM. Regarding `O=S(=O)(Nc1cnc(Br)cn1)c1c[nH]c2cc(Cl)ccc12` [Example I-18, N-(5-bromopyrazin-2-yl)-6-chloro-1H-indole-3-sulfonamide], the IC50 on GPR17 [2] was 0.0316 to 0.316 µM. Further, the Kb at GPR17 [3] is 0.0316 to 0.316 µM. For the compound `O=S(=O)(Nc1ccc(I)nc1)c1c[nH]c2cc(Cl)ccc12` [Example I-21, 6-chloro-N-(6-iodopyridin-3-yl)-1H-indole-3-sulfonamide], on GPR17 [2], the IC50 was 0.0316 to 0.316 µM. In addition, the Kb on GPR17 [3] is 0.00316 to 0.0316 µM. On to `O=S(=O)(Nc1cnc(Cl)cc1F)c1c[nH]c2cc(Cl)ccc12` [Example I-25, 6-chloro-N-(6-chloro-4-fluoropyridin-3-yl)-1H-indole-3-sulfonamide], for which, at GPR17 [2], the IC50 was 0.00316 to 0.0316 µM. The Kb on GPR17 [3] is at most 0.00316 µM. Taken in the same sequence, the figures for `COc1nc(Cl)c(F)cc1NS(=O)(=O)c1c[nH]c2nc(Cl)ccc12` [Example I-32, 6-chloro-N-(6-chloro-5-fluoro-2-methoxypyridin-3-yl)-1H-pyrrolo[2,3-b]pyridine-3-sulfonamide] were at most 0.00316 µM and at most 0.00316 µM.

Turning to `COc1nc(F)c(NS(=O)(=O)c2c[nH]c3nc(Cl)ccc23)cc1F` [Example I-33, 6-chloro-N-(2,5-difluoro-6-methoxypyridin-3-yl)-1H-pyrrolo[2,3-b]pyridine-3-sulfonamide], at GPR17 [2], the IC50 was 0.0316 to 0.316 µM. Moreover, the Kb on GPR17 [3] is 0.0316 to 0.316 µM. As to `COc1nc(OC)c(NS(=O)(=O)c2c[nH]c3nc(Cl)ccc23)cc1F` [Example I-34, 6-chloro-N-(5-fluoro-2,6-dimethoxypyridin-3-yl)-1H-pyrrolo[2,3-b]pyridine-3-sulfonamide], the IC50 at GPR17 [2] is 0.00316 to 0.0316 µM. The Kb on GPR17 [3] was 0.00316 to 0.0316 µM. In the case of `NCc1[nH]cc(CCC(=O)O)c1CC(=O)O` [PBG, porphobilinogen], the “amounts needed in the assays (GPR17 activating ligand)” value on GPR17 [1] was “mM range”.

Source of the values: patent US11939319B2, “Pyridinyl and pyrazinyl-(asa)indolsulfonamides” (UCB Pharma GmbH, priority 2018, dated 2024).
